Reference: patent US20230127046A1, “G9a INHIBITOR” (RIKEN, priority 2019, published 2023)

molecular target: T1, recombinant human G9a protein (Homo sapiens, UniProt Q96KQ7); assay: G9a inhibitory activity test (ALPHA); assay type: biochemical; details: read-out: Inhibitory activity (G9a IC50)
T1 construct: purchased BPS Bioscience Inc. #51001
T1 sequence (Q96KQ7 785-1210 limits assumed): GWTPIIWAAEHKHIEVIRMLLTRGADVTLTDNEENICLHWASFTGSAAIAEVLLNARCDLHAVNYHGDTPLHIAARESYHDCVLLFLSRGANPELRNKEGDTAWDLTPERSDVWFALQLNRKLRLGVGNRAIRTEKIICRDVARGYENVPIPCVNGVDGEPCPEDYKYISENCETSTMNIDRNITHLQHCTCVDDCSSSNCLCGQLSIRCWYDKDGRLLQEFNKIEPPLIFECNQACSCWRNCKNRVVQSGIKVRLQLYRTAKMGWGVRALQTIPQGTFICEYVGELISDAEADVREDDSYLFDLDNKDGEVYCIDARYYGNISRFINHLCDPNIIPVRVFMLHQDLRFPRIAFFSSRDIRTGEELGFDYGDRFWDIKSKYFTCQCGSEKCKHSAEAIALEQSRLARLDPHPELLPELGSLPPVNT
Description: The G9a inhibitory activity of each compound was evaluated by measuring the enzymatic activity of G9a by amplified luminescence proximity homogeneous assay (ALPHA). First, 7.5 μL of a dilution of recombinant human G9a protein (BPS Bioscience Inc., #51001) diluted to 0.05 to 0.1 nM with a Tris buffer solution (50 mM Tris-HCl [pH 9.0], 50 mM NaCl, 0.01% Tween-20, 1 mM DTT), and 0.5 μL of the test compound were added to each well of a 384-well microplate (AlphaPlate-384 Shallow Well, PerkinElmer, Inc., #6008359), mixed by vortex, and incubated at room temperature for 10 minutes. 500 nM biotinylated histone H3 peptide (1-21) (AnaSpec Inc., #61702) and 150 μM SAM (Sigma-Aldrich Co. LLC, #A7007) were mixed at 1:1 in advance, and 2 μL of the mixture was added to each well, mixed by vortex, and then incubated at room temperature for 1 hour. AlphaLISA anti-H3K9me2 acceptor beads (PerkinElmer, Inc., #AL117C) and AlphaScreen streptavidin donor beads (PerkinElmer, Inc., #6760002B) were each diluted with an epigenetic buffer (PerkinElmer, Inc., AlphaLISA Epigenetics Buffer Kit #AL008C) to a final concentration of […] after addition. These dilutions were added to the reaction solution in the dark and incubated at room temperature for 1 hour in the dark. Then, measurement was performed using the EnSpire Alpha plate reader (PerkinElmer, Inc., Waltham, Mass., USA). The G9a inhibitory activity of the test compound was calculated as a compound concentration necessary for suppressing G9a enzymatic activity by 50% (IC50 value), by determining the percent inhibition of the compound when the value of a control without the addition of the compound was defined as 0% and the value of a control without the addition of the enzyme was defined as 100%.

Cc1c(C(=O)NC(CCC2CC2)C(=O)N2CCc3c(OCCN(C)C)cccc32)[nH]c2c1C(=O)CC(C)(C)C2 (centres unmarked) [Example 1-122] and CCc1c(C(=O)NC(CCC2CC2)C(=O)N2CCc3c(OCCN(C)C)cccc32)[nH]c2c1C(=O)CC(C)(C)C2 (centres unmarked) [Example 1-141] fall in the same range of IC50: 50 to 200 nM for the first, 50 to 200 nM for the second.

Compared with Cc1c(C(=O)NC(CCC2CC2)C(=O)N2CCc3c(OCCN4CCCCC4)cccc32)[nH]c2c1C(=O)CC(C)(C)C2 (centres unmarked) [Example 1-123], Cc1c(C(=O)NC(CCC2CC2)C(=O)N2CCc3c(CN4CCCCC4)cccc32)[nH]c2c1C(=O)CC(C)(C)C2 (centres unmarked) [Example 1-128] is lower in IC50: 50 to 200 nM for the first, under 50 nM for the second. The second is the more potent here.

First: Cc1c(C(=O)NC(CCC2CC2)C(=O)N2CCc3c(OC4CCN(C)CC4)cccc32)[nH]c2c1C(=O)CC(C)(C)C2 (centres unmarked) [Example 1-124]
Second: Cc1c(C(=O)NC(CCC2CC2)C(=O)N2CCc3c(CN4CCCC4)cccc32)[nH]c2c1C(=O)CC(C)(C)C2 (centres unmarked) [Example 1-126]
The IC50 of the first is higher: 50 to 200 nM for the first, under 50 nM for the second.

Cc1c(C(=O)NC(CCC2CC2)C(=O)N2CCc3cc(CN(C)C)ccc32)[nH]c2c1C(=O)CC(C)(C)C2 (centres unmarked) [Example 1-125] and Cc1c(C(=O)NC(CCC2CC2)C(=O)N2CCc3cc(OCCN(C)C)ccc32)[nH]c2c1C(=O)CC(C)(C)C2 (centres unmarked) [Example 1-134] cannot be ordered by IC50: at least 200 nM for the first, 50 to 200 nM for the second.

Cc1c(C(=O)NC(CCC2CC2)C(=O)N2CCc3cc(CN4CCCC4)ccc32)[nH]c2c1C(=O)CC(C)(C)C2 (centres unmarked) [Example 1-127] and Cc1c(C(=O)NC(CCC2CC2)C(=O)N2CCc3cc(CN4CCCCC4)ccc32)[nH]c2c1C(=O)CC(C)(C)C2 (centres unmarked) [Example 1-129] cannot be ordered by IC50: 50 to 200 nM for the first, at least 200 nM for the second.

COc1ccc2c(c1)CCN2C(=O)C(CCC1CC1)NC(=O)c1[nH]c2c(c1C)C(=O)CC(C)(C)C2 (centres unmarked) [Example 1-130] and COc1ccc2c(c1)N(C(=O)C(CCC1CC1)NC(=O)c1[nH]c3c(c1C)C(=O)CC(C)(C)C3)CC2 (centres unmarked) [Example 1-131] cannot be ordered by IC50: at least 200 nM for the first, at least 200 nM for the second.

Cc1c(C(=O)NC(CCC2CC2)C(=O)N2CCc3cc(O)ccc32)[nH]c2c1C(=O)CC(C)(C)C2 (centres unmarked) [Example 1-132] and Cc1c(C(=O)NC(CCC2CC2)C(=O)N2CCc3ccc(O)cc32)[nH]c2c1C(=O)CC(C)(C)C2 (centres unmarked) [Example 1-136] cannot be ordered by IC50: at least 200 nM for the first, at least 200 nM for the second.

Cc1c(C(=O)NC(CCC2CC2)C(=O)N2CCc3cc(OCCO)ccc32)[nH]c2c1C(=O)CC(C)(C)C2 (centres unmarked) [Example 1-133] and Cc1c(C(=O)NC(CCC2CC2)C(=O)N2CCc3cc(OCCN4CCCCC4)ccc32)[nH]c2c1C(=O)CC(C)(C)C2 (centres unmarked) [Example 1-135] cannot be ordered by IC50: at least 200 nM for the first, 50 to 200 nM for the second.

Cc1c(C(=O)NC(CCC2CC2)C(=O)Nc2cccc(CN(C)C)c2)[nH]c2c1C(=O)CC(C)(C)C2 (centres unmarked) [Example 1-137] and Cc1c(C(=O)NC(CCC2CC2)C(=O)Nc2ccc(CN(C)C)cc2)[nH]c2c1C(=O)CC(C)(C)C2 (centres unmarked) [Example 1-138] cannot be ordered by IC50: under 50 nM for the first, under 50 nM for the second.

First: Cc1c(C(=O)NC(CCC2CC2)C(=O)Nc2ccc(CCN(C)C)cc2)[nH]c2c1C(=O)CC(C)(C)C2 (centres unmarked) [Example 1-139]
Second: Cc1c(C(=O)NC(CCC2CC2)C(=O)N2CCc3cc(OCCN(C)C)ccc3C2)[nH]c2c1C(=O)CC(C)(C)C2 (centres unmarked) [Example 1-140]
The IC50 of the first is lower: under 50 nM for the first, at least 200 nM for the second. The first is the more potent here.

CC(C)c1c(C(=O)NC(CCC2CC2)C(=O)N2CCc3c(OCCN(C)C)cccc32)[nH]c2c1C(=O)CC(C)(C)C2 (centres unmarked) [Example 1-142] and Cc1c(C(=O)NC(CCC2CC2)C(=O)N2CCc3c(CN4CCOCC4)cccc32)[nH]c2c1C(=O)CC(C)(C)C2 (centres unmarked) [Example 1-144] cannot be ordered by IC50: 50 to 200 nM for the first, at least 200 nM for the second.

Cc1c(C(=O)NC(CCC2CC2)C(=O)N2CCc3cc(CN4CCOCC4)ccc32)[nH]c2c1C(=O)CC(C)(C)C2 (centres unmarked) [Example 1-143] and Cc1c(C(=O)NC(CCC2CC2)C(=O)N2CCc3cc(N4CCOCC4)ccc32)[nH]c2c1C(=O)CC(C)(C)C2 (centres unmarked) [Example 1-147] cannot be ordered by IC50: at least 200 nM for the first, at least 200 nM for the second.

Cc1c(C(=O)NC(CCC2CC2)C(=O)N2CCc3ccc(CN4CCCC4)cc32)[nH]c2c1C(=O)CC(C)(C)C2 (centres unmarked) [Example 1-145] and Cc1c(C(=O)NC(CCC2CC2)C(=O)N2CCc3ccc(CN4CCCCC4)cc32)[nH]c2c1C(=O)CC(C)(C)C2 (centres unmarked) [Example 1-146] cannot be ordered by IC50: at least 200 nM for the first, at least 200 nM for the second.
